Data taken from US6849650B2, “Heterocyclic compounds, pharmaceutical compositions comprising same, and methods for inhibiting β-amyloid peptide release and/or its synthesis by use of such compounds” (Athena Neurosciences, Inc., priority 1998, dated 2005).

`COC(=O)C1(Cc2ccccc2)CNC(C(C)NC(=O)Cc2cc(F)cc(F)c2)=N1` (stereo not shown) [Example 5, 2-[1-(3,5-difluorophenylacetamido)ethyl]-4-methoxycarbonyl-4-phenylmethyl-2-imidazoline] showed a melting point of 158 to 160 °C.
